Where “and” joins values, the source holds several entries; their conditions need not be identical. Identical values can stand only once.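 The compound was tested at five concentrations on cells cultured in 96-well plates, with a 48-hour exposure period. Here, GI50 denotes the concentration required for 50% inhibition of growth.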 Calls of active or inactive are those of the source. No stated cut-off is given here; in the data, active = GI50 up to about 1.1 µM and inactive = higher.
What was measured:
Test in all cases: NCI anticancer screen, dose series, 48 h
SNB-78 = test system: SNB-78
COLO 205 = test system: COLO 205
UACC-62 = test system: UACC-62
NCI-H23 = test system: NCI-H23
CCRF-CEM = test system: CCRF-CEM
SK-MEL-28 = test system: SK-MEL-28
SNB-75 = test system: SNB-75
K562 = test system: K562
A498 = test system: A498
RXF 631 = test system: RXF 631
IGROV-1 = test system: IGROV-1
UO-31 = test system: UO-31
HL-60 = test system: HL-60
NCI-H522 = test system: NCI-H522
Malme-3M = test system: Malme-3M
HCT-116 = test system: HCT-116
NCI-H226 = test system: NCI-H226
SN12C = test system: SN12C
RPMI-8226 = test system: RPMI-8226
NCI-H460 = test system: NCI-H460
SF-539 = test system: SF-539
M19-MEL = test system: M19-MEL
DMS-273 = test system: DMS-273
XF498 = test system: XF498
LOX IMVI = test system: LOX IMVI
DLD-1 = test system: DLD-1
SF-268 = test system: SF-268
SK-OV-3 = test system: SK-OV-3
OVCAR-4 = test system: OVCAR-4
HOP-92 = test system: HOP-92
DMS-114 = test system: DMS-114
MOLT-4 = test system: MOLT-4
LXFL 529 = test system: LXFL 529
SR = test system: SR
786-0 = test system: 786-0
CAKI-1 = test system: CAKI-1
SK-MEL-2 = test system: SK-MEL-2
HOP-62 = test system: HOP-62
M14 = test system: M14
HCC 2998 = test system: HCC 2998
MCF7 = test system: MCF7
Hs-578T = test system: Hs-578T
MDA-MB-231 = test system: MDA-MB-231
NCI/ADR-RES = test system: NCI/ADR-RES
DU-145 = test system: DU-145
T47D = test system: T47D
PC-3 = test system: PC-3
MDA-N = test system: MDA-N
U-251 = test system: U-251
OVCAR-8 = test system: OVCAR-8
OVCAR-3 = test system: OVCAR-3
SW-620 = test system: SW-620
KM12 = test system: KM12
SF-295 = test system: SF-295
ACHN = test system: ACHN
A549 = test system: A549
HT-29 = test system: HT-29
HOP-18 = test system: HOP-18
OVCAR-5 = test system: OVCAR-5
UACC-257 = test system: UACC-257
RXF 393 = test system: RXF 393
SNB-19 = test system: SNB-19
EKVX = test system: EKVX
KM-20L2 = test system: KM-20L2
HCT-15 = test system: HCT-15

SMILES: CN1CCCN2CCN(C)CCCN(CC1)CC2
- GI50 (SNB-78): > 100 µM (inactive)
- GI50 (COLO 205): > 100 µM (inactive)
- GI50 (UACC-62): > 100 µM (inactive)
- GI50 (NCI-H23): > 100 µM (inactive)
- GI50 (CCRF-CEM): > 100 µM (inactive)
- GI50 (SK-MEL-28): > 100 µM (inactive)
- GI50 (SNB-75): > 100 µM (inactive)
- GI50 (K562): > 100 µM (inactive)
- GI50 (A498): > 100 µM (inactive)
- GI50 (RXF 631): > 100 µM (inactive)
- GI50 (IGROV-1): > 100 µM (inactive)
- GI50 (UO-31): > 100 µM (inactive)
- GI50 (HL-60): > 100 µM (inactive)
- GI50 (NCI-H522): > 100 µM (inactive)
- GI50 (Malme-3M): > 100 µM (inactive)
- GI50 (HCT-116): > 100 µM (inactive)
- GI50 (NCI-H226): > 100 µM (inactive)
- GI50 (SN12C): > 100 µM (inactive)
- GI50 (RPMI-8226): > 100 µM (inactive)
- GI50 (NCI-H460): > 100 µM (inactive)
- GI50 (SF-539): > 100 µM (inactive)
- GI50 (M19-MEL): > 100 µM (inactive)
- GI50 (DMS-273): > 100 µM (inactive)
- GI50 (XF498): > 100 µM (inactive)
- GI50 (LOX IMVI): > 100 µM (inactive)
- GI50 (DLD-1): > 100 µM (inactive)
- GI50 (SF-268): > 100 µM (inactive)
- GI50 (SK-OV-3): > 100 µM (inactive)
- GI50 (OVCAR-4): > 100 µM (inactive)
- GI50 (HOP-92): > 100 µM (inactive)
- GI50 (DMS-114): > 100 µM (inactive)
- GI50 (MOLT-4): > 100 µM (inactive)
- GI50 (LXFL 529): > 100 µM (inactive)
- GI50 (SR): > 100 µM (inactive)
- GI50 (786-0): > 100 µM (inactive)
- GI50 (CAKI-1): > 100 µM (inactive)
- GI50 (SK-MEL-2): > 100 µM (inactive)
- GI50 (HOP-62): > 100 µM (inactive)
- GI50 (M14): > 100 µM (inactive)
- GI50 (HCC 2998): > 100 µM (inactive)

SMILES: CC1(C)CC[C@H](C2=CC(=O)c3c(O)ccc(O)c3C2=O)O1
- GI50 (MCF7): 173 nM (active) and 216 nM (active)
- GI50 (Hs-578T): 2.64 µM (inactive) and 2.74 µM (inactive)
- GI50 (RXF 631): 1.15 µM (inactive)
- GI50 (MDA-MB-231): 2.44 µM (inactive) and 1.48 µM (inactive)
- GI50 (SK-OV-3): 8.05 µM (inactive) and 4.24 µM (inactive)
- GI50 (NCI/ADR-RES): 2.79 µM (inactive)
- GI50 (DMS-114): 359 nM (active) and 200 nM (active)
- GI50 (DU-145): 2.4 µM (inactive) and 2.09 µM (inactive)
- GI50 (T47D): 460 nM (active) and 470 nM (active)
- GI50 (PC-3): 2.86 µM (inactive) and 1.71 µM (inactive)
- GI50 (HOP-62): 4.61 µM (inactive) and 2.72 µM (inactive)
- GI50 (MDA-N): 577 nM (active) and 904 nM (active)

SMILES: O=C1C=C(Nc2cc(Cl)ccc2Cl)c2ccccc2C1=O
- GI50 (SNB-78): > 100 µM (inactive)
- GI50 (COLO 205): 36.1 µM (inactive)
- GI50 (U-251): 25.2 µM (inactive)
- GI50 (UACC-62): 16.9 µM (inactive)
- GI50 (NCI-H23): 20.7 µM (inactive)
- GI50 (OVCAR-8): 16 µM (inactive)
- GI50 (OVCAR-3): 23 µM (inactive)
- GI50 (SW-620): 29.3 µM (inactive)
- GI50 (KM12): 23 µM (inactive)
- GI50 (SF-295): 25.1 µM (inactive)
- GI50 (SK-MEL-28): 38.6 µM (inactive)
- GI50 (ACHN): 26.1 µM (inactive)
- GI50 (SNB-75): 25.9 µM (inactive)
- GI50 (A549): 35.9 µM (inactive)
- GI50 (K562): 13.5 µM (inactive)
- GI50 (A498): 26.6 µM (inactive)
- GI50 (RXF 631): > 100 µM (inactive)
- GI50 (IGROV-1): 64.1 µM (inactive)
- GI50 (UO-31): 23.9 µM (inactive)
- GI50 (HL-60): 15.8 µM (inactive)
- GI50 (HT-29): 86.9 µM (inactive)
- GI50 (HOP-18): 22.6 µM (inactive)
- GI50 (Malme-3M): 19.4 µM (inactive)
- GI50 (HCT-116): 34.1 µM (inactive)
- GI50 (NCI-H226): 23.9 µM (inactive)
- GI50 (OVCAR-5): 39 µM (inactive)
- GI50 (SN12C): 38.5 µM (inactive)
- GI50 (RPMI-8226): 20.9 µM (inactive)
- GI50 (NCI-H460): 25.9 µM (inactive)
- GI50 (SF-539): 33.3 µM (inactive)
- GI50 (UACC-257): 24 µM (inactive)
- GI50 (M19-MEL): 15.7 µM (inactive)
- GI50 (DMS-273): 21.3 µM (inactive)
- GI50 (DLD-1): 45.3 µM (inactive)
- GI50 (SF-268): 64.3 µM (inactive)
- GI50 (SK-OV-3): 51.6 µM (inactive)
- GI50 (OVCAR-4): 47.6 µM (inactive)
- GI50 (HOP-92): 20.4 µM (inactive)
- GI50 (DMS-114): 25.5 µM (inactive)
- GI50 (RXF 393): 55.5 µM (inactive)
- GI50 (SNB-19): 46.2 µM (inactive)
- GI50 (EKVX): > 100 µM (inactive)
- GI50 (786-0): 34.8 µM (inactive)
- GI50 (KM-20L2): > 100 µM (inactive)
- GI50 (CAKI-1): 32.2 µM (inactive)
- GI50 (HCT-15): 26.5 µM
- GI50 (SK-MEL-2): 15.4 µM (inactive)
- GI50 (HOP-62): 26.1 µM (inactive)
- GI50 (M14): 19.9 µM (inactive)
- GI50 (HCC 2998): 27.5 µM (inactive)

Source: ChEMBL document CHEMBL1201862, “PubChem BioAssay data set” (2004)
